Assay results as given in patent publication US20110015371A1 (Vertex Pharmaceuticals Incorporated, priority 1994, published 2011).

How the values were obtained:
[1] = test system: Human Peripheral Blood Mononuclear Cells (PBMC) or Enriched Adherent Mononuclear Cells; test: Cell assay: IL-1β assay with human PBMC or enriched adherent mononuclear cells; format: cell-based; conditions: LPS-stimulated cells, mature IL-1β in supernatant by ELISA
Procedure, shortened: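 Human PBMC (suspension at 6×10^6 cells/ml) or adherent monocytes enriched by 1 h plating (2.5−3.0×10^5 cells/well) were stimulated with 5 ng/ml LPS (final) plus compound (5-6 dilutions, 0.1% DMSO final) for 16-18 hr at 37° C. Mature IL-1β in supernatants quantified by ELISA; duplicate cultures, duplicate ELISAs.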

[2] = target: T1, ICE (Homo sapiens, UniProt P29466); test: Enzyme assay with UV-visible substrate (Succinyl-Tyr-Val-Ala-Asp-pNitroanilide); format: biochemical
T1 sequence (P29466 120-297 limits assumed): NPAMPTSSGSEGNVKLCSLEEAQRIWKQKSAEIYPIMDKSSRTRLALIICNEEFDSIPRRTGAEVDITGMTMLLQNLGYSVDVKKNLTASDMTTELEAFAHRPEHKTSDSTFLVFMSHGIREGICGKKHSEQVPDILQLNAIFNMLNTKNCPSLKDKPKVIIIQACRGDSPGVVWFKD
T1 sequence (P29466 317-404 limits assumed): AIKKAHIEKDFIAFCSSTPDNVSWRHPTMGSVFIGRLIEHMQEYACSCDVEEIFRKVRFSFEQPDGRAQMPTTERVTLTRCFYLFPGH
Procedure: 1. Enzyme Assay with UV-Visible Substrate
This assay is run using an Succinyl-Tyr-Val-Ala-Asp-pNitroanilide substrate. Synthesis of analogous substrates is described by L. A. Reiter (Int. J. Peptide Protein Res. 43, 87-96 (1994)). The assay mixture contains:
The visible ICE assay is run in a 96-well microtiter plate. Buffer, ICE and DMSO (if inhibitor is present) are added to the wells in the order listed. The components are left to incubate at room temperature for 15 minutes starting at the time that all components are present in all wells. The microtiter plate reader is set to incubate at 37° C. After the 15 minute incubation, substrate is added directly to the wells and the reaction is monitored by following the release of the chromophore (pNA) at 405-603 nm at 37° C. for 20 minutes. A linear fit of the data is performed and the rate is calculated in mOD/min. DMSO is only present during experiments involving inhibitors, buffer is used to make up the volume to 100 μl in the other experiments.
For determination of enzyme inhibition constants (Ki) or the mode of inhibition (competitive, uncompetitive or noncompetitive), the rate data determined in the enzyme assays at varying inhibitor concentrations are computer-fit to standard enzyme kinetic equations (see I. H. Segel, Enzyme Kinetics, Wiley-Interscience, 1975).

[3] = Homo sapiens, PBMC, Example 4 table
[4] = Homo sapiens, PBMC, Example 6 table

Compound | melting point | IC50 [1, 3] [µM] | IC50 [1, 4] [µM] | Ki ([2]; Example 6 table) [µM] | also measured
CC(=O)N[C@@H](Cc1ccc(O)cc1)C(=O)N[C@H](C(=O)N[C@@H](C)C(=O)N[C@H](CC(=O)O)C(=O)COCc1c(Cl)cccc1Cl)C(C)C (mixture of isomers) [Compound 84b, (R,S)N-[N-(Acetyl)tyrosinyl-valinyl-alaninyl]-3-amino-5-(2,6-dichlorophenylmethyloxy)-4-oxo-pentanoic acid] | 165 to 168 °C | 0.5 | – | – | –
C[C@H](NC(=O)c1nc(Cc2ccccc2)c[nH]1)C(=O)N[C@H](C=O)CC(=O)O [Compound 20b, (3S)3-[N-(4-Benzylimidazole-2-carbonyl)-L-alaninyl]amino-4-oxobutanoic acid] | 113 to 115 °C | 16.4 | – | – | –
C[C@H](NC(=O)c1ncc(CCc2ccccc2)[nH]1)C(=O)N[C@H](C=O)CC(=O)O [Compound 20c, (3S)3-{N-[4-(2-Phenylethyl)imidazole-2-carbonyl]-L-alaninyl}amino-4-oxobutanoic acid] | 102 to 104 °C | – | – | – | –
O=C[C@H](CC(=O)O)NC(=O)[C@@H]1CCCN1C(=O)c1nc(CCc2ccccc2)c[nH]1 [Compound 21c, (3S)3{N-[4-(2-Phenylethyl)imidazole-2-carbonyl]-L-prolinyl}amino-4-oxobutanoic acid] | 101 to 103 °C | – | – | – | –
O=C[C@H](CC(=O)O)NC(=O)[C@@H]1CCCN1C(=O)c1nc(CCCc2ccccc2)c[nH]1 [Compound 21d, (3S)3-{N-[4-(3-Phenylpropyl)imidazole-2-carbonyl]-L-prolinyl}amino-4-oxo-butanoic acid] | 91 to 94 °C | 4.8 | – | – | –
COc1ccc(CCCc2c[nH]c(C(=O)N3CCC[C@H]3C(=O)N[C@H](C=O)CC(=O)O)n2)cc1 [Compound 21e, (3S)3-{N-[4-[3-(4-Methoxyphenyl)propyl]imidazole-2-carbonyl]-L-prolinyl}amino-4-oxobutanoic acid] | 101 to 105 °C | 2.9 | – | – | –
O=C[C@H](CC(=O)O)NC(=O)[C@@H]1CCCN1C(=O)c1nc(CCCc2ccc(O)cc2)c[nH]1 [Compound 21f, (3S)3-{N-[4-[3-(4-Hydroxyphenyl)propyl]imidazole-2-carbonyl]-L-prolinyl}amino-4-oxobutanoic acid] | 114 to 118 °C | 2.9 | – | – | –
C[C@H](NC(=O)c1cnc(CCc2ccc(C(F)(F)F)cc2)[nH]1)C(=O)N[C@H](C=O)CC(=O)O [Compound 33b, (3S)3-{N-[2-(2-[4-Trifluoromethylphenyl]ethyl)imidazole-4-carbonyl]-L-alaninyl}-amino-4-oxobutanoic acid] | 120 to 124 °C | > 30 | – | – | Ki ([2]; Example 2 table): 10 µM; Ki ([2]; Example 4 table): 10 µM; IC50 ([1]; Homo sapiens, PBMC, Example 2 table): > 30 µM
C[C@H](NC(=O)c1ccc(Cc2ccccc2)[nH]1)C(=O)N[C@H](C=O)CC(=O)O [Compound 36b, (3S)3-[N-(5-Benzylpyrrole-2-carbonyl)-L-alaninyl]amino-4-oxobutanoic acid] | 109 to 112 °C | 17 | – | – | –
O=C[C@H](CC(=O)O)NC(=O)[C@@H]1CCCN2CCC[C@H](NC(=O)CCc3ccccc3)C(=O)N12 [Compound 47b, [3S,(1S,9S)]3-(Octahydro-10-oxo-9-(3-phenylpropionylamino)-6H-pyridazino-[1,2-a][1,2]diazepine-1-carboxamido)-4-oxobutanoic acid] | 87 to 90 °C | 1.8 | – | – | Ki ([2]; Example 4 table): 0.027 µM
CCCCc1ccc(NC(=O)CCc2ccccc2)c(=O)n1CC(=O)N[C@H](C=O)CC(=O)O [Compound 54d, 3(S)3-(6-Butyl-1,2-dihydro-2-oxo-3-(3-phenylpropionyl)amino-1-pyridyl)acetylamino-4-oxobutanoic acid] | 120 to 125 °C | – | – | – | Ki ([2]; Example 4 table): 1 µM
Cc1ccc(NC(=O)CCc2ccccc2)c(=O)n1CC(=O)N[C@H](C=O)CC(=O)O [Compound 54e, 3(S)3-(1,2-Dihydro-6-methyl-2-oxo-3-(3-phenylpropionyl)amino-1-pyridyl)acetylamino-4-oxobutanoic acid] | 129 to 138 °C | – | – | – | Ki ([2]; Example 4 table): 3.5 µM
O=C[C@H](CC(=O)O)NC(=O)Cn1cccc(NC(=O)CCc2ccccc2)c1=O [Compound 54g, 3(S)3-(1,2-Dihydro-2-oxo-3-(3-phenylpropionyl)amino-1-pyridyl)acetylamino-4-oxobutanoic acid] | 140 to 145 °C (dec.) | > 20 | – | – | Ki ([2]; Example 2 table): 4.8 µM; Ki ([2]; Example 4 table): 4.8 µM
O=C[C@H](CC(=O)O)NC(=O)Cn1c(Cc2ccccc2)ccc(NS(=O)(=O)CCc2ccccc2)c1=O [Compound 54j, 3(S)3-(6-Benzyl-1,2-dihydro-2-oxo-3-(2-phenylethane-sulphonyl)amino-1-pydridyl)acetylamino-4-oxobutanoic acid] | 102 to 105 °C | – | 10 | – | Ki ([2]; Example 4 table): 0.28 µM
O=C(O)CC(NC(=O)Cn1c(Cc2ccccc2)ccc(NC(=O)CCc2ccccc2)c1=O)C(=O)COC(=O)c1c(Cl)cccc1Cl (stereo not shown) [Compound 57b, N-2-(6-Benzyl-1,2-dihydro-2-oxo-3-(3-phenylpropionyl)amino-1-pyridyl)acetyl-3-amino-5-(2,6-dichloro-benzoyloxy)-4-oxo-pentanoic acid] | 116 to 120 °C (dec.) | – | 2.2 | – | –
CC(C)[C@H](NC(=O)OCc1ccccc1)C(=O)N[C@@H](C)C(=O)N[C@@H](CC(=O)O)C(=O)c1ncc(-c2ccccc2)o1 [Compound 145] | – | – | 8.5 | 0.34 | –
CC(C)[C@H](NC(=O)OCc1ccccc1)C(=O)N[C@@H](C)C(=O)N[C@@H](CC(=O)O)C(=O)c1ncc(-c2c(Cl)cccc2Cl)o1 [Compound 146] | – | – | 3.8 | 0.16 | –
CC(C)[C@H](NC(=O)OCc1ccccc1)C(=O)N[C@@H](C)C(=O)N[C@@H](CC(=O)O)C(=O)c1ncc(-c2ccccc2Cl)o1 [Compound 147] | – | – | 8.5 | 0.26 | –
CC(C)[C@H](NC(=O)OCc1ccccc1)C(=O)N[C@@H](C)C(=O)N[C@@H](CC(=O)O)C(=O)c1nccs1 [Compound 148] | – | – | 30 | 6.3 | –
CC(C)[C@H](NC(=O)OCc1ccccc1)C(=O)N[C@@H](C)C(=O)N[C@@H](CC(=O)O)C(=O)c1cocn1 [Compound 149] | – | – | > 30 | 14 | –
CC(C)[C@H](NC(=O)OCc1ccccc1)C(=O)N[C@@H](C)C(=O)NC(CC(=O)O)C(=O)c1ncc(-c2ccccc2)[nH]1 (stereo partly shown) [Compound 150] | – | – | 30 | 10 | –
CC(C)[C@H](NC(=O)OCc1ccccc1)C(=O)N[C@@H](C)C(=O)NC(CC(=O)O)C(=O)c1ncc[nH]1 (stereo partly shown) [Compound 151] | – | – | 30 | 13 | –
CC(=O)N[C@@H](Cc1ccc(O)cc1)C(=O)N[C@H](C(=O)N[C@@H](C)C(=O)N[C@@H](CC(=O)O)C(=O)c1ncc(-c2c(Cl)cccc2Cl)s1)C(C)C [Compound 154] | – | – | 2.4 | 0.042 | –
CC(=O)N[C@@H](Cc1ccc(O)cc1)C(=O)N[C@H](C(=O)N1C[C@H](Oc2ccccc2)C[C@H]1C(=O)N[C@@H](CC(=O)O)C(=O)c1ncc(-c2c(Cl)cccc2Cl)o1)C(C)C [Compound 156] | – | – | 2.7 | 0.001 | –
COc1cccc2nc(C(=O)[C@H](CC(=O)O)NC(=O)[C@@H]3C[C@@H](Oc4ccccc4)CN3C(=O)[C@@H](NC(=O)[C@H](Cc3ccc(O)cc3)NC(C)=O)C(C)C)oc12 [Compound 159] | – | – | 8 | 0.0017 | –
CC(=O)N[C@H](C(=O)N1C[C@H](Oc2ccccc2)C[C@H]1C(=O)N[C@@H](CC(=O)O)C(=O)c1ncc(-c2c(Cl)cccc2Cl)o1)C(C)C [Compound 160] | – | – | 2.25 | 0.145 | –
CC(=O)N[C@@H](Cc1ccc(O)cc1)C(=O)N[C@H](C(=O)N[C@@H](C)C(=O)N[C@@H](CC(=O)O)C(=O)c1ncc(-c2c(Cl)cccc2Cl)o1)C(C)C [Compound 163] | – | – | 1.2 | 0.0028 | –
(3S)t-Butyl N-(N-acetyl-(S)-tyrosinyl-(S)-valinyl-(S)-alaninyl)-3-amino-4-(2-(4-methoxybenzoxazolyl))-4-oxobutanoate [Compound 69b] | – | – | – | – | Ki ([2]; Example 4 table): 0.05 µM; IC50 ([1]; Example 4 table): 0.745 µM
